Measured values published in the NIST ThermoML archive (doi:10.1021/je1009224).

How the values were obtained:
[1] = 101.3 kPa, Liquid
[2] = xn = mol fraction of the nth substance listed; settings: 101 kPa, Liquid

CCCCCC[n+]1ccn(C)c1.O=S(=O)([N-]S(=O)(=O)C(F)(F)F)C(F)(F)F
[1]
Settings	viscosity [mPa·s]
283.1 K	136
298.15 K	70.1
323.15 K	25.8
348.15 K	13.5

C=CCCCCCC [oct-1-ene]
[1]
Settings	viscosity [mPa·s]
283.1 K	0.56
298.15 K	0.47
323.15 K	0.37
348.15 K	0.3

CCCCCC[n+]1ccn(C)c1.O=S(=O)([N-]S(=O)(=O)C(F)(F)F)C(F)(F)F + C=CCCCCCC
[2], x2 = 0
Settings	viscosity [mPa·s]
283.1 K	136
298.15 K	70.1
323.15 K	25.8
348.15 K	13.5

C=CCCCCCC [oct-1-ene] + CCCCCC[n+]1ccn(C)c1.O=S(=O)([N-]S(=O)(=O)C(F)(F)F)C(F)(F)F
viscosity [mPa·s], [2]
Settings	283.1 K	298.15 K	323.15 K	348.15 K
x1 = 0.05	127	66.6	24.4	13
x1 = 0.1	106	56.2	21.6	11.6
x1 = 0.15	93	51.2	20.5	11.4
x1 = 1	0.56	0.47	0.37	0.3
